Results on 5 molecules are retold here after patent publication US9707155B2, “Delamination resistant pharmaceutical glass containers containing active pharmaceutical ingredients” (Corning Incorporated, priority 2013, dated 2017).

For series [1] the following is noted: cited from earlier work.
The subject of a further series is tumor cell lines. As to conditions: cited from earlier work.
The next series has as its system blood glucose. In words: Action profile in dogs (blood glucose as percentage of initial level). In kind it is in vivo. As to conditions: blood glucose at 1 h, 2 h, 3 h, 5 h, 7h. As for the experimental part: An action profile of Lyxumia and/or Lyxumia and Lantus (in combination) after subjection to the storage conditions described in Example 6 is carried out by comparing insulin glargine in dogs with human insulin-Arg^B31-Arg^B32-OH and basal H insulin as an NPH (neutral protamine Hagedorn) composition containing about 10 μg of Zn^2+.
Blood glucose is measured as a percentage of the initial level at the following time points: 1 h, 2 h, 3 h, 5 h, 7h.

A short description of series [2]: Stability after storage conditions. In kind it is physicochemical. As to conditions: under the chosen conditions.
The subject of the next series is tumor xenografts (WM9). In words: Melanoma xenografts (WM9) in nude mice. In kind it is in vivo. Particulars: 5 days treatment, versus untreated mice. As for the experimental part:
Tumor cells (5×10^6) are injected into the bilateral flanks of female […] nude mice (6-8 weeks of age). The tumors are measured with calipers using the formula: V=[…], where V is the volume, L is the largest diameter, and I is the perpendicular diameter of the tumor. When the volume of the tumor nodules reaches 100-150 mm^3, mice are randomly assigned to control or treatment groups (6-9 mice/group).
Therapeutic treatment with a combination of SAR2405550/BSI-201 and the alkylating agent TMZ was initiated when tumor xenografts (WM9) in nude mice reach 100 mm^3 in volume and treatment was continued for 5 days. In specific instances, the tumor volume is measured for assessment of therapeutic effect.

The conditions of series [3]: in vivo; cited from earlier work.
For series [4], the system named is patients with acute coronary syndromes. Particulars: compared to unfractionated heparin and eptifibatide; cited from earlier work.
In another series the test system is BAF-h130 cells. Briefly: IL-6 signaling mediated by sIL-6R, BAF-h130 proliferation ([3H]-thymidine uptake). In kind it is cell-based, murine. As to conditions: IL-6 100 ng/mL, sIL-6R 500 ng/mL, 4 days. The procedure:
BAF-h130 cell is a human gp130-transfected murine pro-B cell, BAF-B03. BAF-h130 cells (1×10^4) are cultured with IL-6 (100 ng/mL) (Genzyme-techne, Minneapolis, Minn., USA), sIL-6R (500 ng/mL) or sarilumab (0.01-100 Ag/mL) at 37° C. under 5% CO2 for 4 days in 96-well flat-bottomed plates. The culture is performed in quadruplicate. [^3H]-thymidine (10 μL/well, 3.7 MBq/mL) (Amercham Pharmacia Biotech, Piscataway, N.J., USA) is added to each well 5 h before the completion of culture. After incubation, the amount of [^3H]-thymidine uptake into cells is determined with a scintillation counter (1450 MicroBeta) (Wallace Oy, Turku, Finland).
BaF-h130 cells could grow by the co-addition of IL-6 (100 ng/ml) and sIL-6R (500 ng/mL), but not by IL-6 or sIL-6R alone. […] Sarilumab suppresses the IL-6/sIL-6R complex-induced proliferation of human gp130-transfected cell, BAF-h130.

In a further series the target is T1, human IL-6R (Homo sapiens, UniProt P08887).
T1 construct: expressed in transfected cells; host or cells: COS-7 cells
T1 sequence (P08887 20-468): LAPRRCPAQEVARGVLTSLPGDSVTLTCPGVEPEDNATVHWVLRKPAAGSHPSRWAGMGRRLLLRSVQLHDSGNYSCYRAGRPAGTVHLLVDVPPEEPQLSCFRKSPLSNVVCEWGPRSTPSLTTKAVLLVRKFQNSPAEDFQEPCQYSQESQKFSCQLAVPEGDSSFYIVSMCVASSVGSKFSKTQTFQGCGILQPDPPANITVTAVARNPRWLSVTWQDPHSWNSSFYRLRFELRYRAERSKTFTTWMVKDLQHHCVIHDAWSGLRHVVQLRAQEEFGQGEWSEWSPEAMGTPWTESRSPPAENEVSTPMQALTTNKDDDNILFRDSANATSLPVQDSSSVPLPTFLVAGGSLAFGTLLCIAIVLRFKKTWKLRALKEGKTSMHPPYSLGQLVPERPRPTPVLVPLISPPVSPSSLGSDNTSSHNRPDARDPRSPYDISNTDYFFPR
Briefly: Binding to COS-7 cells transfected with human IL-6R (fluorescent intensity). In kind it is cell-based. The procedure:
COS-7 cells (1×10^6) are inoculated into 10 mL of the medium on a 10 cm dish. Next day, the old medium is replaced with 20 mL of new medium per dish. After 3.42 mL of Opti-MEM (Invitrogen, Carlsbad, Calif., USA) is placed in a polystyrene tube, 180 μL of Trans-IT LTI reagent (Takara Bio, Shiga, Japan) is added and mixed well. The mixture (3.6 mL) is left at room temperature for 15 min. After 60 μg of human IL-6R expression vector hIL-6R/pcDNA3.1 (+) or control (empty) vector pcDNA3.1 (+) (Invitrogen) is added to 5.4 mL of Opti-MEM and mixed well with the above mixture, the resulting solution (9 mL) is allowed to stand at room temperature for 15 min, divided in 3 mL aliquots on three dishes, and incubated at 37 8 C under 5% CO2 for 3 days.

Series [5] deals with IL-6-dependent myeloma cell line, KPMM2. In words: IL-6 signaling mediated by mIL-6R, KPMM2 growth. In kind it is cell-based. The procedure:
IL-6-dependent myeloma cell line, KPMM2 (1×10^5 cells/mL) are cultured with IL-6 (0-100 ng/mL) and sarilumab (0-100 μg/mL) in a CO2 incubator for 4 days in a 96-well plate. After incubation, the amount of [^3H]-thymidine uptake into cells is determined with a scintillation counter.

The subject of series [6] is patients with active rheumatoid arthritis. As to conditions: week 12, subcutaneous, relative to placebo, patients receiving methotrexate; cited from earlier work.

As for `NC(=O)c1ccc(I)c([N+](=O)[O-])c1` [Iniparib, 4-iodo-3-nitrobenzamide], the solubility entry in series [1] was “soluble”. For the same molecule, in the series on tumor cell lines, the cell cycle arrest result is “inducing cell cycle arrest in the G2/M phase”, the “potentiation of DNA damaging modalities” value is “potentiating the cell cycle effects of DNA damaging modalities” and the γ-H2AX induction result is on record as “inducing γ-H2AX”.

Take “21^A-Gly-30^Ba-L-Arg-30^Bb-L-Arg-human insulin [Gly^A21-Human Insulin-Arg^B31-Arg^B32-OH]”: the basal action profile result in the series on blood glucose is “same advantageous basal profile as human insulin-Arg^B31-Arg^B32-OH”. Besides, the stability entry in [2] is on record as “stable for a long period of time”.

With `Cn1nnc2c(C(N)=O)ncn2c1=O` [TMZ], the tumor growth entry with tumor xenografts (WM9) was “No significant differences in tumor growth”.

Consider `COC(=O)[C@H](Cc1cccc(C(=N)N)c1)[C@@H](C)NC(=O)c1ccc(-c2cc[n+]([O-])cc2)cc1` (mixture of isomers) [Otamixaban, Methyl(2R,3R)-2-{3-[amino(imino)methyl]benzyl}-3-{[4-(1-oxidopyridin-4-yl)benzoyl]amino}butanoate], for which, in series [3], the half-life was roughly 30 min. The “combined end point of death or myocardial infarction” value in series [4] is on record as “significant reduction”.

B1: Sarilumab: fully human monoclonal antibody that selectively targets the interleukin-6 receptor (IL-6R) (antibody, chains of the INN, looked up, V domains shown)
VH: EVQLVESGGGLVQPGRSLRLSCAASRFTFDDYAMHWVRQAPGKGLEWVSGISWNSGRIGYADSVKGRFTISRDNAENSLFLQMNGLRAEDTALYYCAKGRDSFDIWGQGTMVTVSS
VL: DIQMTQSPSSVSASVGDRVTITCRASQGISSWLAWYQQKPGKAPKLLIYGASSLESGVPSRFSGSGSGTDFTLTISSLQPEDFASYYCQQANSFPYTFGQGTKLEIK
For the molecule B1, in the series with BAF-h130 cells, the “proliferation of BAF-h130 cells induced by IL-6/sIL-6R complex” value is “suppresses the proliferation of BAF-h130 cells induced by the complex of IL-6 and sIL-6R in a concentration-dependent manner”. Besides, in the series with human IL-6R (IL-6R transfectant), the “fluorescent intensity in COS-7 cells expressing human IL-6R” value is “increases the fluorescent intensity”. Further, the “fluorescent intensity in COS-7 mock cells” value with human IL-6R (control vector pcDNA3.1 (+) transfectant) is recorded as “not in COS-7 mock cells”. The “growth of KPMM2” value in [5] was “suppress the growth”. Also, in [6], the ACR20 entry is “significant and clinically relevant improvements”.
